Data: PMC8634383, “Switching Bond: Generation of New Antimicrobial Peptides via the Incorporation of an Intramolecular Isopeptide Bond” (ACS Infectious Diseases, 2021)
Values after ≈ are worked out from the molar mass of the structure shown. Starred links: 1 amine or outer side, 2 acyl side, 3 side chain; linkers in the order of their positions; H or OH if unused. Positions of bridges follow the written chain, without caps; N, C: chain ends. Non-standard residues stand in square brackets, D forms with d. Residues, ends and D or L forms follow the SMILES beside them. Chains are numbered I, II in the order given. No end group written: not given here. εLys = N[C@@H](CCCCN[*:1])C(=O)[*:2]

Columns and labels:
[1] = tested on: Escherichia coli K12 parental type; format: cell-based; details: K12, 24 h
Protocol: (§1) A panel of four bacteria, including two Gram-negative (P. aeruginosa, E. coli) and two Gram-positive (S. aureus, B. subtilis) bacterial strains, was used to test the antibacterial properties of the peptides. The bacteria P. aeruginosa, E. coli, and S. aureus belong to the ESKAPE group of pathogens, which are potential multidrug resistant strains that are majorly involved in various nosocomial infections.
(§2) The antimicrobial activity of the peptides was determined against two Gram-negative (Pseudomonas aeruginosa PA01 and the Escherichia coli K12 parental type) and two Gram-positive (Staphylococcus aureus and Bacillus subtilis) bacteria. The minimal inhibitory concentration (MIC) assays were performed as reported by Wiegand et al.,[50] using the broth microdilution method in 96-well round-bottom microplates. Briefly, bacterial cells in mid log phase were cultured in Mueller-Hinton broth (MHB) and then diluted to 10^6 CFU/mL. Aliquots of 50 μL of bacterial solution were added to 50 μL of MHB medium containing 2-fold serially diluted peptides with concentrations ranging from 1.56 to 50 μM. Plates were incubated at 37 °C for 24 h, and MICs were defined as the lowest concentration of peptide that prevented detectable turbidity. Cultures without peptides and uninoculated MHB were employed as positive and negative controls, respectively. The bacterial growth inhibition was evaluated by measuring the absorbance at 600 nm using a microplate autoreader (SynersyMx, Biotek).

Bacillus subtilis = format: cell-based; details: 24 h
Protocol: as §1, §2

[2] = tested on: Pseudomonas aeruginosa PA01; format: cell-based; details: 24 h
Protocol: as §1, §2

in vitro = details: for percentage intact peptide: 20% (v/v) human plasma, 37 °C, RP-HPLC C18, 215 nm peak area; for remaining at 0.25 h, 200 μM / remaining at 0.5 h, 200 μM / remaining at 1 h, 200 μM / remaining at 2 h, 200 μM / remaining at 4 h, 200 μM: human, blood plasma (20% v/v), pH 7.4
Protocol: The stability of the peptides was assessed by incubating them in blood plasma (20% v/v) rich in proteases thrombin and plasmin for different time periods at 37 °C.
The stability of peptides in human blood plasma was measured using a literature procedure.[13],[53] Plasma was separated from red blood cells over centrifugation, frozen, and stored at −80 °C until use. Briefly, peptides were prepared as a 1 mM solution in phosphate buffered saline (pH 7.4). 20 μL of the peptide solution was diluted in 80 μL of blood plasma (20% v/v). The solution was incubated at 37 °C for different time points, and 100 μL of a mixture containing 80% acetonitrile/10% methanol/10% water was added to stop further degradation of the peptides. A cloudy solution was produced upon the addition of the stopping solution, and the sample was cooled to 4 °C for 1 h and then centrifuged at 10 000 rpm for 10 min to remove the plasma proteins as precipitate. The supernatant (50 μL) was injected onto a reversed-phase HPLC (C18 reverse phase, Bio-Rad analytical column, 250 × 4 mm, 300 Å pore size, 7 μm particle size). The column was eluted in 40 min using a linear gradient of 10–90% acetonitrile in water containing 0.1% trifluoroacetic acid (v/v) at a flow rate of 0.6 mL/min, and the absorbance was detected at 215 nm. The percentage of remaining peptide was determined by the decrease in chromatographic peak area.

[3] = tested on: human monocytic (THP-1) cells; format: cell-based; details: 100 µM
Protocol: Peptide-induced cytotoxicity was assessed against murine macrophage (RAW 264.7) cells and human monocytic (THP-1) cells using the benzenesulfonic acid hydrate and N-methyl dibenzopyrazine methyl sulfate (XTT) dye reduction assay. […] This may in part be due to low hydrophobicity (Table 1), leading to less bacterial membrane alteration.
Figure 3 Cytotoxicity of peptides (1.56–100 μM) on human monocytic (THP-1) cells. Cell viability was analyzed and quantified by measuring the absorption at 450 nm. The data is presented as mean percent viability. All data represent mean ± SD from three independent experiments. One-way analysis of variance was used to analyze the data.
The cytotoxicity of the peptides toward the murine macrophage cells (RAW 264.7) and human monocytic (THP-1) cells was assayed using the colorimetric 2,3-bis(2-methoxy-4-nitro-5-sulfophenyl)-2H-tetrazolium-5-carboxanilide (XTT) method. […] After incubation, the cell viabilities were assessed by the XTT reaction solution (100 μL), and benzenesulfonic acid hydrate and N-methyl dibenzopyrazine methyl sulfate (mixed in a 50:1 ratio) were added for an additional 4 h incubation at 37 °C. The absorbance at 450 nm was then measured using a microplate autoreader (SynersyMx, Biotek). The percentage of cell viability was calculated relative to the 100% survival control after the blank read’s deduction.

trypsin = test: in vitro; details: for remaining at 1 h, 100 μM: trypsin in phosphate buffered saline; for peptide remaining intact after trypsin incubation: trypsin 10 μg/mL, peptide 100 μM in PBS, 1 h, RP-HPLC C18 peak area relative to t0
From the text: In order to overcome the proteolytic instability of peptide based drugs, the resistance of peptides to proteases is an essential prerequisite[33] because the peptides can be digested by the microbial or host protease and lose activity. Here, we tested the effect of the incorporation of an amide bond isostere on the resistance to trypsin, a serine protease known to cleave peptide bonds mainly at the C-terminal side of the amino acids lysine or arginine.
Figure 5 Resistance of peptides to trypsin digestion.
Proteolysis was measured by RP-HPLC using the following parameters, as reported.[52] Trypsin with a final concentration of 10 μg/mL was added to a solution of the peptides in phosphate buffered saline (100 μM), and the reaction was monitored over time by using reversed-phase HPLC (C18 reverse phase, Bio-Rad analytical column, 250 × 4 mm, 300 Å pore size, 7 μm particle size). The column was eluted in 40 min using a linear gradient of 10–90% acetonitrile in water containing 0.1% trifluoroacetic acid (v/v) at a flow rate of 0.6 mL/min.

Staphylococcus aureus = format: cell-based; details: 24 h
Protocol: as §1, §2

Row | Compound | MIC [1] [µM] | MIC (Bacillus subtilis) [µM] | MIC [2] [µM] | percentage intact peptide (in vitro; 30 min) [%] | remaining at 0.25 h, 200 μM (in vitro) [%] | remaining at 0.5 h, 200 μM (in vitro) [%] | remaining at 1 h, 200 μM (in vitro) [%] | remaining at 2 h, 200 μM (in vitro) [%] | remaining at 4 h, 200 μM (in vitro) [%] | drop of cell viability [3] [%] | remaining at 1 h, 100 μM (trypsin) [%] | MIC (Staphylococcus aureus) [µM] | peptide remaining intact after trypsin incubation (trypsin) | percentage intact peptide (in vitro; 120 min) [%]
1 | CC(C)C[C@H](NC(=O)[C@H](CC(C)C)NC(=O)[C@@H](N)CCCCNC(=O)[C@H](CC(C)C)NC(=O)[C@H](CC(C)C)NC(=O)[C@H](CCCCN)NC(=O)[C@@H](N)CCCCNC(=O)[C@H](CC(C)C)NC(=O)[C@H](CC(C)C)NC(=O)[C@H](CCCCN)NC(=O)[C@@H](N)CCCCNC(=O)[C@H](CC(C)C)NC(=O)[C@H](CC(C)C)NC(=O)[C@H](CCCCN)NC(=O)[C@@H](N)CC(C)C)C(N)=O [Amp1EP] (I: H-LKLL[εLys]KLL / II: H-KKLL[εLys]LL-NH2; amide I:C-II:1) | 6.25 (≈ 11.3 µg/mL) | 12.5 (≈ 22.6 µg/mL) | 3.125 to 6.25 | ~85 | 85 | 85 | 66 | 60 | 37 | 50 | 37 | – | – | –
2 | CC[C@H](C)[C@H](NC(=O)CN)C(=O)NCC(=O)N[C@@H](CCCCN)C(=O)N[C@@H](Cc1ccccc1)C(=O)N[C@@H](CC(C)C)C(=O)N[C@@H](CCCCN)C(=O)NCCCC[C@H](N)C(=O)N[C@@H](C)C(=O)N[C@@H](CCCCN)C(=O)N[C@@H](CCCCN)C(=O)N[C@@H](Cc1ccccc1)C(=O)NCC(=O)NCCCC[C@H](N)C(=O)N[C@@H](C)C(=O)N[C@@H](Cc1ccccc1)C(=O)N[C@H](C(=O)NCCCC[C@H](N)C(=O)N[C@H](C(=O)N[C@@H](CC(C)C)C(=O)N[C@@H](CCCCN)C(=O)N[C@@H](CCCCN)C(N)=O)[C@@H](C)CC)C(C)C [MSIEP] (H-GIGKFLK[εLys]AKKFG[εLys]AFV[εLys]ILKK-NH2) | 12.5 (≈ 31 µg/mL) | 6.25 to 12.5 | 6.25 to 12.5 | – | 99 | 98 | 76 | 75 | 75 | 20 | > 66 | 6.25 to 12.5 | – | –
3 | GIGKFLKKAKKFGKAFVKILKK-NH2 [MSI-78] | 1.56 to 3.12 | 1.56 | – | – | 91 | 81 | 81 | 63 | 55 | – | – | 0.78 to 1.56 | no longer detected | –
4 | LKLLKKLLKKLLKLL-NH2 [Amp1L] | 3.12 to 6.25 | 6.25 to 12.5 | – | ~65 | 71 | 65 | 62 | 61 | 39 | – | – | – | no longer detected | ~61
